The text below walks through data of US10882856B2 (BeiGene, Ltd., priority 2017, dated 2021).

The target in assay [1] is T1, IDO1 (Homo sapiens, UniProt P14902). Nature of the assay: Hela cell-based IDO1 assay. The conditions noted are these: Hela cells. In short, it runs like this:
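Kynurenine was measured at 480 nm in trichloroacetic acid-deproteinised supernatant after adding 2% 4-(dimethylamino)benzaldehyde. This supernatant came from HeLa cells seeded at 8000 per well in 96-well plates in phenol red-free DMEM with 10% FBS and, from 4 hours after seeding, exposed for 48 hours at 37 °C, 5% CO2 to DMSO-diluted compound dilutions, IFN-γ (final 100 ng/mL) and 0.4 mM L-Trp. The resulting data were fitted with a four-parameter logistic model in XLfit. Potency was taken from those fits.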

Assay [2] addresses T2, cellular TDO2 in HEK293-TDO2 cells (Homo sapiens, UniProt P48775).
T2 construct: expressed in transfected cells; host or cells: HEK293 (ATCC), stably transfected
Put plainly: 293-TDO2 cell-based assay (Kyn colorimetric). As to conditions: 48 hours of incubation. In short, it runs like this:
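HEK293 cells stably expressing TDO2 (10000/well, phenol red-free DMEM, 10% FBS) were dosed 4 h after plating and incubated 48 h at 37° C. Supernatant Kyn was measured after TCA precipitation by 4-(dimethylamino)benzaldehyde colour at 480 nm. IC50 came from four-parameter logistic fits.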

The target in assay [3] is T1, IDO1. Nature of the assay: IDO1 enzymatic assay. The format is biochemical. Also noted: His tag (N); made in house; host or cells: E. coli. As to conditions: read-out: Enzyme IC50 IDO1. The gist of the method:
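IC50 values reflect remaining IDO1 activity over increasing compound concentrations. The enzyme (50 nM, N-terminally His-tagged, purified from E. coli) was incubated for 1.5 hours at 24 °C with compound, 1.3 mM D-tryptophan, 5 mM L-ascorbic acid, methylene blue and 0.4 mg/mL catalase in 50 mM potassium phosphate pH 7.5 with 0.1% BSA. The slope of N'-formylkynurenine formation, read continuously at 321 nm for 1 hour, served as activity.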

Counter-ions that a name gives are not always drawn.

T1 sequence (P14902 whole entry): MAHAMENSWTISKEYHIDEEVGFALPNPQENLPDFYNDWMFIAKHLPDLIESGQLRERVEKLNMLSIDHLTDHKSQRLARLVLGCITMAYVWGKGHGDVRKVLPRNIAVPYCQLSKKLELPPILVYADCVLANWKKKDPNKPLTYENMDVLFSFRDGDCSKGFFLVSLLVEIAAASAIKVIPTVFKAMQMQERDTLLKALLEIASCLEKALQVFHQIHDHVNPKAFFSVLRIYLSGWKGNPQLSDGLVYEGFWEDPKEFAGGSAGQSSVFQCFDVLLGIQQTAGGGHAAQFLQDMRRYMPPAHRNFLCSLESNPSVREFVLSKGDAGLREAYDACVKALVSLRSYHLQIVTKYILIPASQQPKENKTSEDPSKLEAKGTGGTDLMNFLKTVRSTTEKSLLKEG
T2 sequence (P48775 whole entry): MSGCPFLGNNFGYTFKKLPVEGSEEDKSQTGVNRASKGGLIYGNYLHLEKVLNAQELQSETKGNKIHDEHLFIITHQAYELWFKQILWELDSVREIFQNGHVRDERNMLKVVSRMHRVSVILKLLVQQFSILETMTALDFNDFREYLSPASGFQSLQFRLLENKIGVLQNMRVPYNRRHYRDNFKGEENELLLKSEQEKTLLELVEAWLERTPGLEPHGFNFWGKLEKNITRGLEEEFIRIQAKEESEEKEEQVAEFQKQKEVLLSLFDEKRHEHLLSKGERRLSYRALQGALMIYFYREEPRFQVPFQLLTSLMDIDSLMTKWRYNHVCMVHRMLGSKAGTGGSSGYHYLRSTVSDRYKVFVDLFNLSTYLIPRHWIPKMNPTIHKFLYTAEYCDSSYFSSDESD

Usually EC50 stands for the concentration at which the effect is half-maximal. By IC50 is commonly meant the midpoint of a concentration-inhibition curve. As for `Oc1ccccc1C1CCC(C(O)c2c(C3CC3)ccc3cncn23)CC1` (stereo not drawn) [Example D112, 2-(4-((6-cyclopropylimidazo[1,5-a]pyridin-5-yl)(hydroxy)methyl)cyclohexyl)phenol], the EC50 at IDO1 [1] was 50 nM; in assay [2] it was > 10000 nM. On IDO1 [3], the IC50 came to 43 nM.

Regarding `COc1ccccc1C1CCC(C(O)c2c(C3CC3)ccc3cncn23)CC1` (stereo not drawn) [Example D113, (6-cyclopropylimidazo[1,5-a]pyridin-5-yl)(4-(2-methoxyphenyl)cyclohexyl)methanol], the EC50 at IDO1 [1] was 95 nM; in assay [2], > 10000 nM. Moreover, the IC50 at IDO1 [3] was 43 nM.

For the molecule `OC(c1c(C2CC2)ccc2cncn12)C1CCC(c2ccc(OC3CCOCC3)cc2)CC1` (stereo not drawn) [Example D114, (6-cyclopropylimidazo[1,5-a]pyridin-5-yl)(4-(4-((tetrahydro-2H-pyran-4-yl)oxy)phenyl)cyclohexyl)methanol], the concentration for a half-maximal effect (EC50) at IDO1 [1] was 155 nM; in assay [2] it was > 10000 nM. Besides, the IC50 at IDO1 [3] was 32 nM.

Turning to `O[C@H](c1c(C2CC2)ccc2cncn12)[C@H]1CC[C@@H](c2ccc(OC3CCOCC3)cc2)CC1` [Example D114d, (S)-(6-cyclopropylimidazo[1,5-a]pyridin-5-yl)((1 s,4R)-4-(4-((tetrahydro-2H-pyran-4-yl)oxy)phenyl)cyclohexyl)methanol], the EC50 is 5110 nM at IDO1 [1] and > 10000 nM in assay [2]. Besides, on IDO1 [3], the IC50 is 1400 nM.

Take `CC(C)c1ccc2cncn2c1C(O)C1CCC(c2ccc(Cl)cc2)CC1` (stereo not drawn) [Example D115, (4-(4-chlorophenyl)cyclohexyl)(6-isopropylimidazo[1,5-a]pyridin-5-yl)methanol]: the figures for the EC50 (on IDO1 [1]; in assay [2]) were 157 nM and > 10000 nM, respectively. The IC50 at IDO1 [3] came out at 57 nM.

As for `OC(c1c(C2CC2)ccc2cncn12)C1CCC(c2cccc(Cl)c2)CC1` (stereo not drawn) [Example D116, (4-(3-chlorophenyl)cyclohexyl)(6-cyclopropylimidazo[1,5-a]pyridin-5-yl)methanol], the concentration giving a half-maximal response (EC50) at IDO1 [1] was 107 nM; in assay [2], > 10000 nM. In addition, at IDO1 [3], the IC50 amounted to 44 nM.

Take `OC(c1c(C2CC2)ccc2cncn12)C1CCC(c2ccccc2Cl)CC1` (stereo not drawn) [Example D117]: the concentration for a half-maximal effect (EC50) on IDO1 [1] is 275 nM; in assay [2], > 10000 nM. The IC50 on IDO1 [3] was 48 nM.

Regarding `OC(c1c(C2CC2)ccc2cncn12)C1CCC(c2ccc(Br)cc2)CC1` (stereo not drawn) [Example D118, (4-(4-bromophenyl)cyclohexyl)(6-cyclopropylimidazo[1,5-a]pyridin-5-yl)methanol], the EC50 was 546 nM at IDO1 [1] and > 10000 nM in assay [2]. Also, on IDO1 [3], the IC50 is 44 nM.

Consider `OC(c1c(C2CC2)ccc2cncn12)C1CCC(c2ccc(-c3ccccc3)cc2)CC1` (stereo not drawn) [Example D119, (4-([1,1′-biphenyl]-4-yl)cyclohexyl)(6-cyclopropylimidazo[1,5-a]pyridin-5-yl)methanol], for which the values for the EC50 (at IDO1 [1]; in assay [2]) were 668 nM and > 10000 nM, respectively. Also, on IDO1 [3], the IC50 amounted to 64 nM.

Turning to `OC(c1c(C2CC2)ccc2cncn12)C1CCC(c2ccc(Oc3ccccc3)cc2)CC1` (stereo not drawn) [Example D120, (6-cyclopropylimidazo[1,5-a]pyridin-5-yl)(4-(4-phenoxyphenyl)cyclohexyl)methanol], the EC50 on IDO1 [1] is 700 nM; in assay [2], > 10000 nM. Further, on IDO1 [3], the IC50 amounted to 100 nM.

`O=C(Nc1ccc(C2CCC(C(O)c3c(C4CC4)ccc4cncn34)CC2)cc1)OCc1ccccc1` (stereo not drawn) [Example D121]: the EC50 on IDO1 [1] is 606 nM; in assay [2], > 10000 nM. In addition, the IC50 at IDO1 [3] is 73 nM.

Regarding `Nc1ccc(C2CCC(C(O)c3c(C4CC4)ccc4cncn34)CC2)cc1` (stereo not drawn) [Example D122, (4-(4-aminophenyl)cyclohexyl)(6-cyclopropylimidazo[1,5-a]pyridin-5-yl)methanol], the EC50 was 228 nM at IDO1 [1] and > 10000 nM in assay [2]. Further, the IC50 at IDO1 [3] turned out to be 28 nM.

Take `O=Cc1ccc(C2CCC(C(O)c3c(C4CC4)ccc4cncn34)CC2)cc1` (stereo not drawn) [Example D123, 4-(4-((6-cyclopropylimidazo[1,5-a]pyridin-5-yl)(hydroxy)methyl)cyclohexyl)benzaldehyde]: the figures for the EC50 (on IDO1 [1]; in assay [2]) were 462 nM and > 10000 nM, respectively. Also, the half-inhibitory concentration (IC50) on IDO1 [3] is 54 nM.

As for `CNC(=O)c1ccc(C2CCC(C(O)c3c(C4CC4)ccc4cncn34)CC2)cc1` (stereo not drawn) [Example D124, 4-(4-((6-cyclopropylimidazo[1,5-a]pyridin-5-yl)(hydroxy)methyl)cyclohexyl)-N-methylbenzamide], the EC50 at IDO1 [1] was 188 nM; in assay [2], > 10000 nM. Besides, on IDO1 [3], the IC50 turned out to be 22 nM.

With `CN(C)C(=O)c1ccc(C2CCC(C(O)c3c(C4CC4)ccc4cncn34)CC2)cc1` (stereo not drawn) [Example D125, 4-(4-((6-cyclopropylimidazo[1,5-a]pyridin-5-yl)(hydroxy)methyl)cyclohexyl)-N,N-dimethylbenzamide], the results for the half-maximal effective concentration (EC50) (at IDO1 [1]; in assay [2]) were 843 nM and > 10000 nM, respectively. The IC50 on IDO1 [3] stood at 24 nM.

On to `OC(c1c(C2CC2)ccc2cncn12)C1CCC(c2ccc(F)c(F)c2)CC1` (stereo not drawn) [Example D126, (6-cyclopropylimidazo[1,5-a]pyridin-5-yl)(4-(3,4-difluorophenyl)cyclohexyl)methanol], for which the EC50 on IDO1 [1] is 64 nM; in assay [2], > 10000 nM. Also, at IDO1 [3], the IC50 came out at 40 nM.

On to `OC(c1c(C2CC2)ccc2cncn12)C1CCC(c2ccc(F)cc2F)CC1` (stereo not drawn) [Example D127, (6-cyclopropylimidazo[1,5-a]pyridin-5-yl)(4-(2,4-difluorophenyl)cyclohexyl)methanol], for which the EC50 at IDO1 [1] is 170 nM; in assay [2], > 10000 nM. Also, the IC50 at IDO1 [3] was found to be 40 nM.

Regarding `OC(c1c(C2CC2)ccc2cncn12)C1CCC(c2ccc(Cl)c(F)c2)CC1` (stereo not drawn) [Example D128, (4-(4-chloro-3-fluorophenyl)cyclohexyl)(6-cyclopropylimidazo[1,5-a]pyridin-5-yl)methanol], the EC50 at IDO1 [1] is 260 nM; in assay [2], > 10000 nM. Besides, at IDO1 [3], the IC50 was 41 nM.

On to `OC(c1c(C2CC2)ccc2cncn12)C1CCC(c2ccc(F)c(Cl)c2)CC1` (stereo not drawn) [Example D129, (4-(3-chloro-4-fluorophenyl)cyclohexyl)(6-cyclopropylimidazo[1,5-a]pyridin-5-yl)methanol], for which the results for the EC50 (on IDO1 [1]; in assay [2]) were 148 nM and > 10000 nM, respectively. The IC50 at IDO1 [3] was determined as 53 nM.

Take `OC(c1c(C2CC2)ccc2cncn12)C1CCC(c2ccc(F)cc2Cl)CC1` (stereo not drawn) [Example D130, (4-(2-chloro-4-fluorophenyl)cyclohexyl)(6-cyclopropylimidazo[1,5-a]pyridin-5-yl)methanol]: the results for the EC50 (at IDO1 [1]; in assay [2]) were 279 nM and > 10000 nM, respectively. The IC50 on IDO1 [3] is 50 nM.

As to `OC(c1c(C2CC2)ccc2cncn12)C1CCC(c2ccc(Cl)cc2F)CC1` (stereo not drawn) [Example D131, (4-(4-chloro-2-fluorophenyl)cyclohexyl)(6-cyclopropylimidazo[1,5-a]pyridin-5-yl)methanol], the results for the 50% effective concentration (EC50) (on IDO1 [1]; in assay [2]) were 578 nM and > 10000 nM, respectively. In addition, the IC50 on IDO1 [3] turned out to be 47 nM.

For `O[C@@H](c1c(C2CC2)ccc2cncn12)[C@H]1CC[C@H](c2ccc(Cl)cc2F)CC1` [Example D131b, (R)-((1r,4R)-4-(4-chloro-2-fluorophenyl)cyclohexyl)(6-cyclopropylimidazo[1,5-a]pyridin-5-yl)methanol hydrochloride], the EC50 at IDO1 [1] is 6490 nM; in assay [2], > 10000 nM. Also, at IDO1 [3], the IC50 was > 10000 nM.

In the case of `OC(c1c(C2CC2)ccc2cncn12)C1CCC(c2cccc(F)c2F)CC1` (stereo not drawn) [Example D132, (6-cyclopropylimidazo[1,5-a]pyridin-5-yl)(4-(2,3-difluorophenyl)cyclohexyl)methanol], the EC50 on IDO1 [1] was 378 nM; in assay [2], > 10000 nM. The IC50 on IDO1 [3] was 55 nM.

With `OC(c1c(C2CC2)ccc2cncn12)C1CCC(c2ccc3sccc3c2)CC1` (stereo not drawn) [Example D133, (4-(benzo[b]thiophen-5-yl)cyclohexyl)(6-cyclopropylimidazo[1,5-a]pyridin-5-yl)methanol], the EC50 on IDO1 [1] was 496 nM; in assay [2] it was > 10000 nM. Also, the IC50 on IDO1 [3] was 44 nM.

Take `OC(c1c(C2CC2)ccc2cncn12)C1CCC(c2ccc3ccsc3c2)CC1` (stereo not drawn) [Example D134, (4-(benzo[b]thiophen-6-yl)cyclohexyl)(6-cyclopropylimidazo[1,5-a]pyridin-5-yl)methanol]: the EC50 on IDO1 [1] was 364 nM; in assay [2] it was > 10000 nM. For the same molecule, the IC50 at IDO1 [3] was 61 nM.

`OC(c1c(C2CC2)ccc2cncn12)C1CCC(c2cccc3ccccc23)CC1` (stereo not drawn) [Example D135, (6-cyclopropylimidazo[1,5-a]pyridin-5-yl)(4-(naphthalen-1-yl)cyclohexyl)methanol]: the EC50 is 32 nM on IDO1 [1] and > 10000 nM in assay [2]. On IDO1 [3], the IC50 came out at 32 nM.

With `OC(c1c(C2CC2)ccc2cncn12)C1CCC(c2ccc3ccccc3c2)CC1` (stereo not drawn) [Example D136, (6-cyclopropylimidazo[1,5-a]pyridin-5-yl)(4-(naphthalen-2-yl)cyclohexyl)methanol], the EC50 at IDO1 [1] was 358 nM; in assay [2] it was > 10000 nM. In addition, the IC50 at IDO1 [3] was found to be 51 nM.
